Results published in patent US20130281313A1, “PROGNOSTIC AND/OR PREDICTIVE BIOMARKERS AND BIOLOGICAL APPLICATIONS THEREOF” (INSTITUT GUSTAVE ROUSSY, priority 2010, published 2013).

How the values were obtained:
Assay type in all cases: cell-based, human
[1] = test system: A549 cells; assay: Targeted metabolomic studies (ATP, ADP, AMP, GSH; RRLC-MS); details: A549 cells, 24 h
Experimental: A549 cells were left untreated or treated with 25 μM CDDP alone or in combination with 5 mM PN, for 24 h. Thereafter, both attached (living) and detached (dying/dead) cells were harvested, washed once in cold PBS and pelleted (800 G for 5 min). Pellets were resuspended in 200 μL deionized water, briefly vortexed and sonicated. 800 μl ice-cold methanol was added, and samples were kept in ice for 15 min, vortexed and centrifuged at 13,000 G for 10 min at 4° C. Supernatants were dried in a SpeedVac drier (Thermo Scientific-Pierce) and stored at −80° C. until analysis. Pellets were resuspended in 150 μL 98:2 water/acetonitrile immediately before analytical determinations (see below).
ATP, ADP, AMP and GSH were quantified on a Rapid Resolution Liquid Chromatography (RRLC) 1200SL system coupled to a 6410 Triple Quadripole (QQQ) mass spectrometer (both from Agilent Technologies). For nucleotides, RRLC was performed on 150×2.1 mm, 3.5 μM Eclipse Plus columns (Agilent Technologies) with water containing 4 mM dimethylhexylamine (DMHA) plus 0.01% (v/v) acetic acid in channel A and acetonitrile in channel B, in gradient mode at a flow rate of 0.2 mL/min: t=0 min 2% B; t=9 min 32% B; t=10 min 95% B; T=12 min 95% B, re-equilibration time=6 min. Mass spectrometry was performed in positive electrospray ionization mode at +4 kV on the QQQ system operating in MRM mode. MRM transitions were optimized with direct infusions of ATP, ADP, and AMP standards with direct infusion, and four transitions were recorded for each compounds. Parent ions were adduct ions of DMHA and also proton adducts:
For GSH, RRLC was performed on a 150×2.1 mm, 3.5 μM Stable Bond AQ column (Agilent Technologies) with water containing 0.2% (v/v) acetic acid in channel A and methanol in channel B, in gradient mode at a flow rate of 0.3 mL/min: t=0 min 2% B; t=8 min 95% B; t=9 min 95% B; re-equilibration time=6 min. Mass spectrometry was performed as above. MRM transitions were optimized with direct infusion of GSH standards.
Data collection and analysis were performed with the MassHunter software (Agilent Technologies).

[2] = test system: A549 cells; assay: Cytofluorometric assessment of cell death (DiOC6(3)/PI co-staining)
[3] = test system: CDDP-resistant A549 clones (A549 #1-3), HCC827, H1299, H1650, H1975, HeLa, U2OS and WT HCT 116 cells; assay: Cytofluorometric assessment of cell death, CDDP alone or combined with PN, panel of cell lines; details: sub-apoptotic dose of CDDP alone or combined with 2.5 mM PN
Excerpt: (A-C) Cytofluorometric assessment of cell death induced by the indicated sub-apoptotic dose of cisplatin (CDDP) alone or combined with PN in 3 distinct CDDP-resistant A549 clones (A549 #1-3, A), in 4 non-small cell lung cancer (NSCLC) cell lines other than A549 (HCC827, H1299, H1650 and H1975 cells, B), in cervical carcinoma HeLa cells, in osteosarcoma U2OS cells as well as in wild type (WT) or TP53^−/− colon carcinoma HCT 116 cells (C).
Unless otherwise specified, chemicals were purchased from Sigma-Aldrich (St. Louis, USA), culture media and supplements for cell culture from Gibco-Invitrogen (Carlsbad, USA) and plasticware from Corning (Corning, USA). Anti-human interleukin 6 (IL6, goat antiserum #AB-206-A) and IL6 receptor (IL6R, goat antiserum #AB-227-A) neutralizing antibodies were purchased by R&D Systems (Minneapolis, USA). Orlistat (Xenical®) was obtained from Roche (Basel, Switzerland). […]
To measure apoptosis-related parameters, living cells were labeled for 30 min at +37° C. with 40 nM 3,3′dihexyloxalocarbocyanine iodide (DiOC6(3), from Molecular Probes-Invitrogen, Eugene, USA), which quantifies the mitochondrial transmembrane potential (Δψm), plus 1 μg/mL propidium iodide (PI), which only accumulates in cells with ruptured plasma membrane {Galluzzi, 2009; Galluzzi, 2008; Galluzzi, 2007}. […]

Row | Compound | intracellular levels of GSH ([1]; 25 μM CDDP) | CDDP-induced cell death upon acute addition of the vitamer (DiOC6(3)/PI co-staining) ([2]; A549 cells, 25 μM CDDP, co-treated for 48 h) | effects of PN on CDDP-induced cell death upon PDXK depletion ([2]; siPDXK-transfected A549 cells, CDDP) | Atkinson's energy charge ([1]; 25 μM CDDP and 5 mM PN in combination, not present with either compound alone) | CDDP-induced decrease in GSH and redox-relevant metabolites (carnitine, acetylcarnitine, propionylcarnitine) ([1]; 25 μM CDDP with 5 mM PN) | chemosensitization to CDDP in other cancer cell lines [3]
1 | N.N.[Cl][Pt][Cl] [CDDP, cis-diammineplatinum(II) dichloride] | a decrease in the intracellular levels of GSH |  |  |  |  | 
2 | Cc1ncc(CO)c(CO)c1O [PN, pyridoxine] |  | exacerbated CDDP-induced cell death | lost upon PDXK depletion | exhibited a bioenergetic defect | largely exacerbated by PN | exerted chemosensitizing effects
